We go through 11 molecules from patent publication US5225607A, “Insecticidal ethers” (Imperial Chemical Industries PLC, priority 1985, dated 1993).

A value given as a limit tells only on which side of the number the result lay.

What all share (assay type): in vivo
The test system of one experiment is Diabrotica balteata. Put plainly: Insecticidal test, Diabrotica balteata (rootworm larvae), residual. Particulars: 72 h, filter paper/maize seed, 3 days, read-out: grading of mortality, DB. Put shortly: (§1)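 Compound dissolved in acetone, diluted with water containing 0.01% wetting agent to 500, 250 or 100 ppm. Pests on host plant or food; pests and/or medium treated. Mortality scored 1–3 days later, graded A (80–100%; 70–100% for S. exigua), B (50–79%; 50–69%), C (<50%).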

The test system of a further experiment is Myzus persicae. Put plainly: Insecticidal test, Myzus persicae (aphids), contact. Particulars: 72 h, Chinese Cabbage leaf, 3 days, read-out: grading of mortality, MP. Put shortly: as §1
The test system of another experiment is Heliothis virescens. In words: whole plant or invertebrate. Particulars: in Gossypium hirsutum, 72 h, read-out: grading of mortality, HV. The method in brief:
as §1

Experiment [1] deals with Musca domestica. Put plainly: Knockdown test, Musca domestica (houseflies - adults). Particulars: cotton wool/sugar, 4 hours, read-out: grading of knockdown, MD/KD. Put shortly: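 Adult houseflies were exposed to the compound as aqueous acetone preparations with 0.01% Lissapol NX wetting agent, at 500, 250 or 100 ppm. Knockdown was graded A (80–100%), B (50–79%) or C (<50%).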

Another experiment deals with Spodoptera exigua. In words: Insecticidal test, Spodoptera exigua (lesser armyworm), residual. Particulars: 72 h, cotton leaf, 3 days, read-out: grading of mortality, SE. As for the experimental part:
The activity of the Product was determined using a variety of insect and acarine pests. The Product was used in the form of liquid preparations containing 500, 250 or 100 parts per million (ppm) by weight of the Product. The preparations were made by dissolving the Product in acetone and diluting the solutions with water containing 0.01% by weight of a wetting agent sold under the trade name "LISSAPOL" NX until the liquid preparations contained the required concentratio of the Product. "Lissapol" is a Registered Trade Mark.
The test procedure adopted with regard to each pest was basically the same and comprised supporting a number of the pests on a medium which was usually a host plant or a foodstuff on which the pests feed, and treating either or both the pests and the medium with the preparations. The mortality of the pests was then assessed at periods usually varying from one to three days after the treatment.
The results of the tests are given in Table IV for each of the Products, at the rate in parts per million given in the second column as a grading of mortality designated as A, B or C wherein A indicates 80-100% mortality or knockdown (70-100% in the case of Spodoptera exigua), B indicates 50-79% mortality or knockdown (50-69% in the case of Spodoptera exigua) and C indicates less than 50% mortality or knockdown.
In Table IV the pest organism used is designated by a letter code and the pest species, the support medium or food, and the type and duration of test is given in Table III.

Experiment [2] has as its system Musca domestica. Put plainly: Insecticidal test, Musca domestica (houseflies - adults), contact. Particulars: 24 h, cotton wool/sugar, 1 day, read-out: grading of mortality, MD. Put shortly:
as §1

Another experiment relates to Tetranychus urticae. Put plainly: Insecticidal/acaricidal test, Tetranychus urticae (spider mites - adult), contact. Particulars: 72 h, French bean leaf, 3 days, read-out: grading of mortality, TU. The method in brief: as §1
Another experiment concerns Nilaparvata lugens. In words: Insecticidal test, Nilaparvata lugens (brown planthopper), contact. Particulars: 72 h, Cabbage leaf, 3 days, read-out: grading of mortality, NL. Put shortly: as §1
In another experiment the test system is Blattella germanica. In words: Insecticidal test, Blattella germanica (cockroach nymphs), residual. Particulars: 72 h, plastic pot, 3 days, read-out: grading of mortality, BG. The method in brief:
as §1

In general, mortality refers to the share of the test organisms that died. Regarding `Fc1ccc(COCC(F)(c2ccc(Br)cc2)C(F)(F)F)cc1Oc1ccccc1` (centres unmarked) [Compound 83, 1,1,1,2-Tetrafluoro-2-(4-bromophenyl)-3-(3-phenoxy-4-fluorobenzyloxy)propane], the mortality at 500 ppm was 80 to 100% in the experiment with Diabrotica balteata; 80 to 100% in the experiment with Myzus persicae; 80 to 100% with Heliothis virescens; 70 to 100% with Spodoptera exigua; 80 to 100% in the experiment on Musca domestica [2]; below 50% in the experiment with Tetranychus urticae. Moreover, the mortality at 500 ppm with Nilaparvata lugens and in the experiment with Blattella germanica was 80 to 100% throughout. The pest or weed control at 500 ppm with Musca domestica [1] fell in the range of 80 to 100%.
In the case of `Cc1ccc(C(O)(COCc2cccc(Oc3ccccc3)c2)C(F)(F)F)cc1` (centres unmarked) [Compound 120, 1,1,1-Trifluoro-2-(4-methylphenyl)-3-(3-phenoxybenzyloxy)propan-2-ol], the mortality at 500 ppm in the experiment with Diabrotica balteata, in the experiment on Myzus persicae, in the experiment with Heliothis virescens, in the experiment with Spodoptera exigua, in the experiment with Musca domestica [2] and in the experiment on Tetranychus urticae was below 50% each time. Also, the mortality at 500 ppm with Nilaparvata lugens and with Blattella germanica was below 50% each time. In the experiment on Musca domestica [1], the pest or weed control at 500 ppm fell in the range of 80 to 100%.
For `Cc1ccc(C(COCc2cccc(Oc3ccccc3)c2)C(F)(F)F)cc1` (centres unmarked) [Compound 22, 1,1,1-Trifluoro-2-(4-methylphenyl)-3-(3-phenoxybenzyloxy)propane], the mortality at 500 ppm is 80 to 100% in the experiment on Diabrotica balteata; 50 to 79% in the experiment with Heliothis virescens; 70 to 100% in the experiment on Spodoptera exigua; 80 to 100% in the experiment with Musca domestica [2]; below 50% in the experiment with Tetranychus urticae; 80 to 100% in the experiment on Nilaparvata lugens. Moreover, in the experiment with Blattella germanica, the mortality at 500 ppm is 80 to 100%. In the experiment on Musca domestica [1], the pest or weed control at 500 ppm was 80 to 100%.
On to `OC(COCc1ccc(F)c(Oc2ccccc2)c1)(c1ccc(Br)cc1)C(F)(F)F` (centres unmarked) [Compound 127, 1,1,1-Trifluoro-2-(4-bromophenyl)-3-(3-phenoxy-4-fluorobenzyloxy)propan-2-ol], for which the mortality at 500 ppm is 80 to 100% in the experiment with Diabrotica balteata; below 50% in the experiment with Myzus persicae; below 50% in the experiment with Heliothis virescens; 50 to 69% with Spodoptera exigua; 50 to 79% with Musca domestica [2]; below 50% in the experiment on Tetranychus urticae. The mortality at 500 ppm in the experiment with Nilaparvata lugens and in the experiment with Blattella germanica was below 50% in each case. Besides, the pest or weed control at 500 ppm in the experiment with Musca domestica [1] is 80 to 100%.
Take `FC(F)(F)C(Cl)(COCc1cccc(Oc2ccccc2)c1)c1ccc2c(c1)OCO2` (centres unmarked) [Compound 64, 1,1,1-Trifluoro-2-chloro-2-(3,4-methylenedioxyphenyl)-3-(3-phenoxybenzyloxy)propane]: the mortality at 500 ppm is below 50% with Diabrotica balteata; below 50% in the experiment on Myzus persicae; 80 to 100% in the experiment with Heliothis virescens; below 50% in the experiment on Spodoptera exigua; 50 to 79% with Musca domestica [2]; below 50% with Tetranychus urticae. Further, the mortality at 500 ppm in the experiment with Nilaparvata lugens and with Blattella germanica was below 50% each time. In addition, the pest or weed control at 500 ppm with Musca domestica [1] is 50 to 79%.
For `CCOc1ccc(C(COCc2cccc(Oc3ccc(Cl)cc3)c2)C(F)(F)F)cc1F` (centres unmarked) [Compound 13, 1,1,1-Trifluoro-2-(3-fluoro-4-ethoxyphenyl)-3-(3-(4-chlorophenoxy)benzyloxy)propane], the mortality at 100 ppm with Diabrotica balteata (100 ppm) was 50 to 79%; in the experiment on Myzus persicae (100 ppm), 80 to 100%; in the experiment with Heliothis virescens it was 80 to 100%; with Spodoptera exigua (100 ppm), 70 to 100%; in the experiment on Musca domestica [2] (100 ppm), 80 to 100%; in the experiment on Tetranychus urticae (100 ppm), below 50%. Moreover, the mortality at 100 ppm with Nilaparvata lugens (100 ppm) and in the experiment on Blattella germanica (100 ppm) was 80 to 100% in each case. Besides, in the experiment with Musca domestica [1] (100 ppm), the pest or weed control at 100 ppm was 80 to 100%.
For `CCOc1c(F)cc(C(COCc2ccc(F)c(Oc3ccccc3)c2)C(F)(F)F)cc1F` (racemic) [Compound 166, (RS)-1,1,1-Trifluoro-2-(3,5-difluoro-4-ethoxyphenyl)-3-(3-phenoxy-4-fluorobenzyloxy)propane], the mortality at 500 ppm lay in the range of 80 to 100% in the experiment with Diabrotica balteata; 50 to 79% with Myzus persicae; 80 to 100% with Heliothis virescens; 70 to 100% in the experiment on Spodoptera exigua; 80 to 100% in the experiment on Musca domestica [2]; 80 to 100% in the experiment with Tetranychus urticae. Also, the mortality at 500 ppm in the experiment on Nilaparvata lugens and in the experiment with Blattella germanica was 80 to 100% each time. In the experiment on Musca domestica [1], the pest or weed control at 500 ppm was in the range of 80 to 100%.
In the case of `CC(C)(C)c1ccc(C(COCc2ccc(F)c(Oc3ccccc3)c2)C(F)(F)F)cc1` (centres unmarked) [Compound 21, 1,1,1-Trifluoro-2-(4-t-butylphenyl)-3-(3-phenoxy-4-fluorobenzyloxy)propane], the mortality at 500 ppm lay within 80 to 100% in the experiment on Diabrotica balteata; 80 to 100% with Myzus persicae; 80 to 100% with Heliothis virescens; 70 to 100% in the experiment on Spodoptera exigua; 80 to 100% with Musca domestica [2]; 80 to 100% in the experiment with Tetranychus urticae. Further, the mortality at 500 ppm in the experiment with Nilaparvata lugens is below 50%; with Blattella germanica it was 50 to 79%. Besides, the pest or weed control at 500 ppm in the experiment with Musca domestica [1] was 80 to 100%.
Regarding `CCOc1ccc(C(COC(c2cccc(Oc3ccccc3)c2)C(F)(F)F)C(F)(F)F)cc1` (racemic) [Compound 264], the mortality at 500 ppm is below 50% with Diabrotica balteata; below 50% in the experiment with Myzus persicae; below 50% in the experiment on Heliothis virescens; 70 to 100% with Spodoptera exigua; below 50% in the experiment on Musca domestica [2]; 50 to 79% in the experiment on Tetranychus urticae. For the same molecule, the mortality at 500 ppm in the experiment with Blattella germanica was below 50%. Further, in the experiment on Musca domestica [1], the pest or weed control at 500 ppm was below 50%.
Regarding `CCOc1ccc(C(COCc2cccc(Oc3ccc(Cl)cc3)c2)C(F)(F)F)cc1` (centres unmarked) [Compound 3, 1,1,1-Trifluoro-2-(4-ethoxyphenyl)-3-(3-(4-chlorophenoxy)benzyloxy)propane], the mortality at 250 ppm is 80 to 100% in the experiment on Diabrotica balteata (250 ppm); 80 to 100% in the experiment on Myzus persicae (250 ppm); below 50% with Heliothis virescens; 80 to 100% in the experiment on Musca domestica [2] (250 ppm); below 50% with Tetranychus urticae (250 ppm); 80 to 100% in the experiment on Nilaparvata lugens (250 ppm). In addition, the mortality at 250 ppm in the experiment with Blattella germanica (250 ppm) is 80 to 100%. In the experiment on Musca domestica [1] (250 ppm), the pest or weed control at 250 ppm was in the range of 80 to 100%.
Take `CCOc1ccc(C(Cl)(COCc2cccc(-c3ccccc3)c2C)C(F)(F)F)cc1` (centres unmarked) [Compound 46, 1,1,1-Trifluoro-2-chloro-2-(4-ethoxyphenyl)-3-(2-methyl-3-phenylbenzyloxy)propane]: the mortality at 500 ppm in the experiment with Diabrotica balteata, in the experiment on Myzus persicae, in the experiment with Heliothis virescens, with Musca domestica [2], in the experiment on Tetranychus urticae and in the experiment with Nilaparvata lugens was below 50% throughout. Besides, the mortality at 500 ppm in the experiment on Blattella germanica was below 50%. Besides, the pest or weed control at 500 ppm with Musca domestica [1] lay in the range of 80 to 100%.
